Measured values as given in US6342503B1, “1N-alkyl-n-arylpyrimidinamines and derivatives thereof” (DuPont Pharmaceuticals Company, priority 1993, dated 2002).

Experiments:
CRF receptor = biological target: T1, CRF receptor (Rattus norvegicus, UniProt P35353); assay: In vitro CRF receptor binding assay (competition with [125I] ovine CRF, rat cortex membranes); details: read-out: Inhibition Ki
T1 construct: 100 μl of membrane suspension as prepared above to give a total reaction volume of 300 μl; from tissue; host or cells: rat cerebral cortex membrane homogenate
T1 sequence (P35353 24-415): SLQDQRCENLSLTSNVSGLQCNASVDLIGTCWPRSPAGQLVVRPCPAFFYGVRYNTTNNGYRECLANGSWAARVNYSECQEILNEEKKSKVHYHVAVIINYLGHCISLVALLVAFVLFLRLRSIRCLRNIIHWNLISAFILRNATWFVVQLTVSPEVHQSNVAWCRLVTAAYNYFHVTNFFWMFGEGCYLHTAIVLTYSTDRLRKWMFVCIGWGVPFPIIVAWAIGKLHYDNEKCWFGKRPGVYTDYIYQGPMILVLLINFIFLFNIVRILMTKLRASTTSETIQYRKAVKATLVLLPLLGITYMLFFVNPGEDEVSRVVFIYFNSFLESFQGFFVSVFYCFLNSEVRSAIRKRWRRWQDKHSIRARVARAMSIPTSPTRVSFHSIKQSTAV

SMILES | melting point | Ki (CRF receptor)
COc1cc(Br)c(Nc2nc(C)cc(C)n2)c(OC)c1 [compound 203] | 177 to 179 °C | 501 to 2000 nM
COc1ccc(Nc2nc(C)cc(C)n2)c(Br)c1 [compound 204] | 118 to 119 °C | 2000 to 10000 nM
C=CCN(c1nc(C)cc(C)n1)c1c(Br)cc(OC)cc1OC [compound 205] | 88 to 90 °C | < 500 nM
COc1cc(Br)c(Nc2nc(C)cc(C)n2)c(Br)c1 [compound 223] | 175 to 177 °C | 501 to 2000 nM
CCOc1cc(Br)c(N(CC)c2nc(C)cc(C)n2)c(Br)c1 [compound 224, N-(2,6-Dibromo-4-(ethoxy)phenyl)-N-ethyl-4,6-dimethyl-2-pyrimidinamine] | 107 to 108 °C | < 500 nM
CCN(c1nc(C)cc(C)n1)c1c(Br)cc(OC)cc1Br [compound 226] | 101 to 103 °C | < 500 nM
CCOc1cc(Br)c(Nc2nc(C)cc(C)n2)c(Br)c1 [compound 228] | 165 to 167 °C | 501 to 2000 nM
CCN(c1nc(C)cc(C)n1)c1c(O)cc(OC)cc1Br [compound 230, N-(2-Bromo-6-hydroxy-4-methoxyphenyl)-N-ethyl-4,6-dimethyl-2-pyrimidinamine] | 157 to 160 °C | < 500 nM
CCN(c1nc(C)nc(N2CCOCC2)n1)c1c(Br)cc(OC)cc1OC [compound 237] | 90 to 95 °C | < 500 nM
CCN(c1nc(C)nc(N(C)C)n1)c1ccc(C(C)C)cc1Br [compound 240] | 72 to 75 °C | < 500 nM
CCN(c1nc(C)nc(N2CCSC2)n1)c1ccc(C(C)C)cc1Br [compound 241] | 70 to 72 °C | < 500 nM
CCN(c1nc(C)nc(Oc2ccccc2)n1)c1ccc(C(C)C)cc1Br [compound 243] | 140 to 142 °C | 2000 to 10000 nM
CCOC(=O)N1CCN(c2nc(C)nc(N(CC)c3c(Br)cc(OC)cc3OC)n2)CC1 [compound 244] | 65 to 70 °C | 2000 to 10000 nM
CCN(c1nc(C)nc(C(C#N)c2ccccc2)n1)c1c(Br)cc(OC)cc1OC (stereo not shown) [compound 247] | 50 to 52 °C | < 500 nM
CCN(c1nc(C)cc(C)n1)c1c(OC)cc(OC)c(Br)c1Br [compound 251, N-(2,3-Dibromo-4,6-dimethoxyphenyl)-N-ethyl-4,6-dimethyl-2-pyrimidinamine] | 133 to 138 °C | 501 to 2000 nM
CCN(c1nc(C)cc(C)n1)c1cc(Br)c(OC)cc1OC [compound 253, N-(3-Bromo-4,6-dimethoxyphenyl)-N-ethyl-4,6-dimethyl-2-pyrimidinamine] | 143 to 145 °C | 501 to 2000 nM
CCN(c1nc(C)cc(C(=O)N2CCN(c3ccccc3OC)CC2)n1)c1ccc(C(C)C)cc1Br [compound 268] | 57 to 60 °C | < 500 nM
CCN(c1nc(C)cc(C(=O)NCc2ccco2)n1)c1ccc(C(C)C)cc1Br [compound 270] | 87 to 88 °C | 2000 to 10000 nM
CCN(c1nc(C)cc(C(=O)N2CCN(c3ncccn3)CC2)n1)c1ccc(C(C)C)cc1Br [compound 273] | 114 to 116 °C | 501 to 2000 nM
CCN(c1nc(C)cc(C(=O)N(C)C)n1)c1ccc(C(C)C)cc1Br [compound 282] | 80 to 82 °C | < 500 nM
CCN(c1nc(C)cc(C(=O)c2cccnc2)n1)c1ccc(C(C)C)cc1Br [compound 284] | 165 to 167 °C | < 500 nM
CCN(c1nc(C)cc(C(=O)c2cc[nH]n2)n1)c1ccc(C(C)C)cc1Br [compound 286] | 171 to 173 °C | < 500 nM
CCN(c1nc(C)cc(C(=O)c2ccc(OC)cc2)n1)c1ccc(C(C)C)cc1Br [compound 287] | 104 to 106 °C | 501 to 2000 nM
CCN(c1nc(C)cc(C(=O)c2ccco2)n1)c1ccc(C(C)C)cc1Br [compound 288] | 136 to 138 °C | < 500 nM
CCN(c1nc(C)cc(C(O)(c2ccc(OC)cc2)c2ccc(OC)cc2)n1)c1ccc(C(C)C)cc1Br [compound 289] | 63 to 65 °C | < 500 nM
CCN(c1nc(C)cc(C(O)(c2ccccc2)c2ccccc2)n1)c1ccc(C(C)C)cc1Br [compound 293] | 56 to 58 °C | < 500 nM
